Results taken from patent publication US20250051356A1, “RIFABUTIN ANALOGS FOR THE TREATMENT OF DISEASE” (priority 2021, published 2025).
Values after ≈ are worked out from the molar mass of the structure shown. Read-outs that look alike come from different tables or passages of the source.

Columns and labels:
Format in all cases: cell-based
[1] = test system: A. baumannii wild type (WT); test: MIC against A. baumannii isolate in RPMI + FCS
[2] = test system: A. baumannii with Arr-mediated and RpoB mutation-mediated resistance
[3] = test system: Enterococcus faecalis (strain ATCC 51575); test: MIC against E. faecalis; details: for MIC: Enterococcus faecalis, ATCC51575, CAMHB
[4] = test system: M. abscessus subsp. abscessus ATCC 19977; test: MIC against M. abscessus in Middlebrook 7H9 + ADC; details: for MIC: Mycobacteroides abscessus, ATCC19977
[5] = test system: A. baumannii RpoB H535Q mutant; test: microbe, parasite or virus in culture; details: for MIC: Acinetobacter baumannii, RPOBH535QMUTANT, read-out: A. baumannii MIC in RPMI + FCS, RpoB H535Q
[6] = test system: Staphylococcus epidermidis (strain ATCC 12228); test: MIC against S. epidermidis; details: for MIC: Staphylococcus epidermidis, ATCC12228, CAMHB
[7] = test system: M. smegmatis (strain ATCC 700084); test: MIC against M. smegmatis (90% growth inhibition, BacTiter-Glo); details: 7H9 + ADC, 20 hours
[8] = test system: M. abscessus subsp. bolletii CCUG 50184; test: MIC against M. abscessus isolate in 7H9 + ADC; details: for MIC: Mycobacteroides abscessus, CCUG50184
[9] = test system: A. baumannii RpoB H535C mutant; test: microbe, parasite or virus in culture; details: for MIC: Acinetobacter baumannii, RPOBH535CMUTANT, read-out: A. baumannii MIC in RPMI + FCS, RpoB H535C
[10] = test system: Streptococcus pneumoniae (strain ATCC 49619); test: MIC against S. pneumoniae; details: CAMHB + 5% laked horse blood
[11] = test system: Hemophilus influenzae (strain ATCC 49247); test: MIC against H. influenzae; details: for MIC: Haemophilus influenzae, ATCC49247, Hemophilus test medium broth
[12] = test system: M. abscessus subsp. abscessus CCUG 71636; test: MIC against M. abscessus isolate in 7H9 + ADC; details: for MIC: Mycobacteroides abscessus, CCUG71636
[13] = test system: Enterococcus faecium (strain NCTC 12204); test: MIC against E. faecium; details: for MIC: Enterococcus faecium
[14] = test system: M. abscessus subsp. massiliense CCUG 48898; test: MIC against M. abscessus isolate in 7H9 + ADC; details: for MIC: Mycobacteroides abscessus, CCUG48898
[15] = test system: Mycobacterium tuberculosis (H37Rv, strain ATCC 27294)
[16] = test system: Streptococcus pyogenes (strain IHMA 1117021); test: MIC against S. pyogenes; details: CAMHB + 5% laked horse blood
[17] = test system: A. baumannii RpoB H535L mutant; test: microbe, parasite or virus in culture; details: for MIC: Acinetobacter baumannii, RPOBH535LMUTANT, read-out: A. baumannii MIC in RPMI + FCS, RpoB H535L
[18] = test system: M. abscessus subsp. abscessus CCUG 71382; test: MIC against M. abscessus isolate in 7H9 + ADC; details: for MIC: Mycobacteroides abscessus, CCUG71382
[19] = test system: A. baumannii Arr-2; test: microbe, parasite or virus in culture; details: for MIC: Acinetobacter baumannii, ARR2, read-out: A. baumannii MIC in RPMI + FCS, Arr-2
[20] = test system: M. avium (ATCC 25291); test: MIC against M. avium in CAMHB + ADC; details: Mycobacterium avium, ATCC25291; ATCC 25291; CAMHB + ADC (5%); read-out: MIC M. avium
[21] = test system: A. baumannii (HUMC1 strain); test: MIC by broth microdilution against A. baumannii in RPMI + 10% FCS; details: Acinetobacter baumannii; HUMC1 strain; RPMI + 10% FCS; read-out: MIC A. baumannii
[22] = test system: M. abscessus strains; test: MIC over the five tested M. abscessus strains in 7H9 + ADC; details: Mycobacteroides abscessus, span over five isolates, read-out: MIC values against the tested M. abscessus strains
[23] = test system: M. xenopi (ATCC 19250); test: MIC against M. xenopi in CAMHB + ADC; details: Mycobacterium xenopi, ATCC19250; ATCC 19250; CAMHB + ADC (5%); read-out: MIC M. xenopi
[24] = test system: M. kansasii (ATCC 12478); test: MIC against M. kansasii in CAMHB + ADC; details: Mycobacterium kansasii, ATCC12478; ATCC 12478; CAMHB + ADC (5%); read-out: MIC M. kansasii
[25] = test system: S. aureus (UAMS-1625 strain); test: MIC by broth microdilution against S. aureus; details: Staphylococcus aureus, read-out: MIC S. aureus
[26] = test system: M. abscessus subsp. abscessus CCUG 71382; test: MIC against M. abscessus isolate in CAMHB; details: Mycobacteroides abscessus, CCUG71382
[27] = test system: M. abscessus subsp. abscessus CCUG 71636; test: MIC against M. abscessus isolate in CAMHB; details: Mycobacteroides abscessus, CCUG71636; read-out: M. abscessus MIC in CAMHB, abscessus CCUG 71636
[28] = test system: M. abscessus subsp. massiliense CCUG 48898; test: MIC against M. abscessus isolate in CAMHB; details: Mycobacteroides abscessus, CCUG48898
[29] = test system: M. abscessus subsp. bolletii CCUG 50184; test: MIC against M. abscessus isolate in CAMHB; details: Mycobacteroides abscessus, CCUG50184
[30] = test system: M. abscessus subsp. abscessus ATCC 19977; test: MIC against M. abscessus isolate in CAMHB; details: Mycobacteroides abscessus, ATCC19977
[31] = ATCC 19977, 7H9 + ADC, read-out: MIC M. abscessus
[32] = read-out: M. abscessus MIC in 7H9 + ADC, abscessus ATCC 19977
[33] = NCTC12204, strain NCTC 12204, CAMHB, read-out: MIC E. faecium
[34] = Acinetobacter baumannii; read-out: A. baumannii MIC in RPMI + FCS, WT

CO[C@H]1/C=C/O[C@@]2(C)Oc3c(C)c(O)c4c(c3C2=O)C(=O)C(N2CCOCC2)=C(NC(=O)/C(C)=C\C=C\[C@H](C)[C@H](O)[C@@H](C)[C@@H](O)[C@@H](C)[C@H](OC(=O)CC(=O)OCC2CCCN(C)C2)[C@@H]1C)C4=O (stereo partly drawn) [CGP4832, reference compound]
antibacterial activity against A. baumannii wild type strain [1]: did not exhibit strong activity
activity against A. baumannii with Arr- and RpoB mutation-mediated resistance [2]: lost activity compared with rifabutin

CO[C@H]1/C=C/O[C@@]2(C)Oc3c(C)c(O)c4c(c3C2=O)C(=O)C(N2CCOCC2)=C(NC(=O)/C(C)=C\C=C\[C@H](C)[C@H](O)[C@@H](C)[C@@H](O)[C@@H](C)[C@H](OC(=O)CC(=O)OCC2CCCN(C)C2)[C@@H]1C)C4=O (stereo partly drawn) [CGP 4832]
MIC E. faecalis ([3]; CAMHB): 2000 µg/mL (≈ 2140 µM)
M. abscessus MIC in 7H9 + ADC, abscessus ATCC 19977 ([4]; 7H9 + ADC): 4 µg/mL
A. baumannii MIC in RPMI + FCS, RpoB H535Q ([5]; RPMI + FCS): >32 µg/mL
MIC S. epidermidis ([6]; CAMHB): ≤2 µg/mL
MIC M. smegmatis [7]: 30 µg/mL
M. abscessus MIC in 7H9 + ADC, bolletii CCUG 50184 ([8]; 7H9 + ADC): 8 µg/mL
A. baumannii MIC in RPMI + FCS, RpoB H535C ([9]; RPMI + FCS): >32 µg/mL
MIC S. pneumoniae [10]: ≤2 µg/mL
MIC H. influenzae ([11]; Hemophilus test medium broth): 500 µg/mL (≈ 534 µM)
M. abscessus MIC in 7H9 + ADC, abscessus CCUG 71636 ([12]; 7H9 + ADC): 2 µg/mL
MIC E. faecium ([13]; strain NCTC 12204, CAMHB): 2000 µg/mL (≈ 2140 µM)
A. baumannii MIC in RPMI + FCS, WT ([1]; RPMI + FCS): 8 µg/mL
M. abscessus MIC in 7H9 + ADC, massiliense CCUG 48898 ([14]; 7H9 + ADC): 4 µg/mL
MIC M. tuberculosis [15]: 3.6 µg/mL (≈ 3.85 µM)
MIC S. pyogenes [16]: 8 µg/mL
A. baumannii MIC in RPMI + FCS, RpoB H535L ([17]; RPMI + FCS): >32 µg/mL
M. abscessus MIC in 7H9 + ADC, abscessus CCUG 71382 ([18]; 7H9 + ADC): 8 µg/mL
A. baumannii MIC in RPMI + FCS, Arr-2 ([19]; RPMI + FCS): 4 µg/mL

CO[C@H]1/C=C/O[C@@]2(C)Oc3c(C)c(O)c4c(c3C2=O)C2=NC3(CCN(CC(C)C)CC3)NC2=C(NC(=O)/C(C)=C\C=C\[C@H](C)[C@H](O)[C@@H](C)[C@@H](O)[C@@H](C)[C@H](OC(=O)CC(=O)OCC2CCCN(C)C2)[C@@H]1C)C4=O (stereo partly drawn) [Compound 3]
MIC [20]: 1 µg/mL
MIC [3]: 2000 µg/mL (≈ 2000 µM)
MIC [4, 31]: 1 µg/mL
MIC [4, 32]: 1 µg/mL
MIC [21]: ≤ 0.002 µg/mL
MIC [5]: ≤ 0.002 µg/mL
MIC [6]: ≤ 2 µg/mL
MIC [8]: 0.5 µg/mL
MIC [9]: 0.008 µg/mL
MIC [22]: 0.5 to 2 µg/mL
MIC [11]: 1000 µg/mL (≈ 998 µM)
MIC [12]: 0.5 µg/mL
MIC [13, 33]: 1000 µg/mL (≈ 998 µM)
MIC [23]: 1 µg/mL
MIC [24]: 0.125 µg/mL
antibacterial activity against A. baumannii wild type strain [1]: retained strong antibacterial activity
MIC ([1]; Acinetobacter baumannii, read-out: A. baumannii MIC in RPMI + FCS, WT): ≤ 0.002 µg/mL
MIC [14]: 2 µg/mL
MIC [17]: 0.25 µg/mL
MIC [18]: 1 µg/mL
activity against A. baumannii with Arr- and RpoB mutation-mediated resistance [2]: overcame antibiotic resistance mechanisms
MIC [19]: ≤ 0.002 µg/mL
MIC [25]: 0.06 µg/mL (≈ 0.0599 µM)

CO[C@H]1/C=C/O[C@@]2(C)Oc3c(C)c(O)c4c(c3C2=O)C2=NC3(CCN(CC(C)C)CC3)NC2=C(NC(=O)/C(C)=C\C=C\[C@H](C)[C@H](O)[C@@H](C)[C@@H](O)[C@@H](C)[C@H](OC(C)=O)[C@@H]1C)C4=O [Rifabutin, rifabutin]
MIC [20]: 0.125 µg/mL
MIC [3]: 4000 µg/mL (≈ 4720 µM)
MIC [26]: > 16 µg/mL
MIC [4, 31]: 8 µg/mL
MIC [4, 32]: 8 µg/mL
MIC [21]: ≤ 0.002 µg/mL
MIC [5]: 0.004 µg/mL
MIC [6]: 4 µg/mL (≈ 4.72 µM)
MIC [8]: 8 µg/mL
MIC [27]: 2 µg/mL (≈ 2.36 µM)
MIC [9]: 0.03 µg/mL
MIC [22]: 2 to 16 µg/mL
MIC [11]: 500 µg/mL (≈ 590 µM)
MIC [12]: 4 µg/mL
MIC ([13]; NCTC12204, read-out: MIC E. faecium): 125 µg/mL (≈ 148 µM)
MIC [23]: 0.03 µg/mL
MIC [24]: 0.001 µg/mL
MIC [28]: 8 µg/mL (≈ 9.44 µM)
MIC [29]: 16 µg/mL (≈ 18.9 µM)
MIC [30]: 16 µg/mL (≈ 18.9 µM)
MIC [1, 34]: ≤ 0.002 µg/mL
MIC [14]: 2 µg/mL
MIC [17]: > 32 µg/mL
MIC [18]: 16 µg/mL
MIC [19]: 0.125 µg/mL
MIC [25]: 0.016 µg/mL (≈ 0.0189 µM)

CO[C@H]1/C=C/O[C@@]2(C)Oc3c(C)c(O)c4c(O)c(c(/C=N/N5CCN(C)CC5)c(O)c4c3C2=O)NC(=O)/C(C)=C\C=C\[C@H](C)[C@H](O)[C@@H](C)[C@@H](O)[C@@H](C)[C@H](OC(C)=O)[C@@H]1C [Rifampicin, rifampicin]
MIC [3]: 1000 µg/mL (≈ 1220 µM)
MIC [4, 32]: > 32 µg/mL
MIC [5]: > 32 µg/mL
MIC [6]: ≤ 2 µg/mL
MIC [8]: > 32 µg/mL
MIC [9]: > 32 µg/mL
MIC [22]: > 32 µg/mL
MIC [11]: 250 µg/mL (≈ 304 µM)
MIC [12]: > 32 µg/mL
MIC [13, 33]: 500 µg/mL (≈ 608 µM)
MIC [1, 34]: 32 µg/mL
MIC [14]: 32 µg/mL
MIC [17]: > 32 µg/mL
MIC [18]: > 32 µg/mL
MIC [19]: > 32 µg/mL
